Results on eight compounds are retold here after US7964587B2, “Tocopherol and tocotrienol aerosols” (Children's Hospital & Research Center at Oakland, priority 2002, dated 2011).

Where two headings read alike, the source gives them in different places.

Usually IC50 stands for the point on the concentration scale where inhibition reaches its midpoint.

The subject of one data set is PGE2. Kind of data set: inhibition of PGE2, apparent IC50s of vitamin E forms. The conditions noted are these: for inhibitory effect on PGE2: e.g. ref. 10. Format: cell-based.
The subject of data set [1] is human prostate epithelial cancer cells. The experiment in a line: anti-proliferative effect on prostate cancer cells. The class given is cell-based.
The conditions of data set [2]: cited from earlier work.
Data set [3] has as its system lung epithelial cancer cells. Kind of data set: anti-proliferative effect on lung cancer cells. The class given is cell-based, human.
A short description of data set [4]: plasma and exudate concentrations of alpha-T, gamma-T and gamma-CEHC in the air-pouch model. The conditions noted are these: for gamma-T concentration in the collected exudate: 20-h after carrageenan.
Experimental: Carrageenan-induced inflammation in the air-pouch model was performed and evaluated substantially as previously described (14). Alpha-T and gamma-T were measured in plasma and exudate as previously described (12). Gamma-CEHC was quantified essentially as previously described (13).
To evaluate the relative bio-availability of the administrated compounds, we measured plasma and exudate concentrations of gamma-T and alpha-T as well as plasma gamma-CEHC.
A further data set relates to normal epithelial cells. The experiment in a line: effect on normal epithelial cells. The class given is cell-based.
In data set [5] the test system is carrageenan-induced inflammation. Kind of data set: carrageenan-induced inflammation in the air-pouch model. Format: in vivo, rat. How it is done:
For this experimental protocol, we adapted the methods recited in the Experimental Example reported below. […] Formulations were administered as described below, wherein the recited tocopherol was dissolved in tocopherol-stripped corn oil, and continuously administrated by gavage for three days before the induction of inflammation. The PGE2 component of the formulation was empirically varied and adjusted to provide a minimized synergistic concentration. For example, aspirin formulations were adjusted to 50 or 100 mg/Kg with gamma-T at 30 mg/Kg. In controls evaluating the effects of aspim or gamma-T alone, we increased the aspririn dosage to 150 mg/Kg and gamma-T to […], respectively.
Gamma-CEHC was quantified essentially as previously described (13).
For the measurement of PGE2, LTB4 and 8-isoprostane, the exudate fluid was mixed vigorously with 2 mL methanol to precipitate proteins, and with 5 mL hexane to remove lipids. Following a brief centrifugation and aspiration of the hexane layer, the methanol layer was removed and evaporated under N2. PGE2, LTB4 and 8-isoprostane were measured using the corresponding ELISA kits from Cayman Chemicals (Ann Arbor, Mich.). TNF-a and lactate dehydrogenase (LDH) in the exudate were measured directly using an ELISA kit from R&D (Minneapolis, Minn.) and an analytical kit from Roche (Indianapolis, Ind.), respectively.
The total amount of nitrate and nitrite in the exudate was measured using the Model 280 nitric oxide analyzer (NOA™) (Sievers Instruments, Inc.; Boulder, Colo.). Nitrite and nitrate in the exudate were reduced by vanadium (III) to nitric oxide, which then was measured by a red-sensitive photomultiplier tube after being converted by ozone to chemiluminescent reactive nitrogen dioxide. Nitrite and nitrate were quantified based on a standard curve from nitrate that was established under the identical conditions.
Carrageenan-induced inflammation in the air-pouch model is commonly used to evaluate the pharmaceutical potency of anti-inflammatory drugs (14). […] These cells play a key role in the inflammatory response (11, 14, 15). A single injection of carrageenan caused a potent localized inflammation, as indicated by a marked increase in white cell infiltration, eicosanoid formation and tissue damages (11). To study the effect of gamma-CEHC on eicosanoid synthesis and neutrophil infiltration, it (1 mg/ml, 2 ml in PBS) was injected directly into the air pouch right before the injection of carrageenan. Since the retention of gamma-CEHC is relatively short (16), its effect was evaluated at 6 h after the induction of inflammation.
To test the effects of tocopherols, alpha-T or gamma-T, dissolved in tocopherol-stripped corn oil, was continuously administrated by gavage for three days before the induction of inflammation. Effects were evaluated at 20 h after carrageenan injection, when cell infiltration had reached a maximum in the pouch.

Data set [6] has the same test system. The following applies: cited from earlier work.
The mark [7] stands for this setting: 33 mg/kg by gavage for three days, 20 h after carrageenan, P<0.05.
Setting [8] is: 1 mg/ml, 2 ml in PBS injected into the air pouch, 6 h.

In the case of alpha-tocotrienol [reference compound], in the data set with PGE2, the “inhibitory effect on PGE2” value is given as “weak to no inhibitory effect”.
For `Cc1c(O)cc2c(c1C)O[C@](C)(CCC[C@H](C)CCC[C@H](C)CCCC(C)C)CC2` [gamma-T, gamma-tocopherol], the anti-proliferative effect result in data set [1] and in data set [3] was “showed anti-proliferative effects” throughout. Also, the “fraction of gamma-T converted to gamma-CEHC” value in data set [2] was not above 50%. In addition, the “elevation of gamma-T in exudate fluid vs corn-oil fed controls” value in data set [4] (33 mg/kg) was approximately 10 fold; in data set [4] (100 mg/kg), approximately 20 fold. Besides, the gamma-T concentration in exudate, corresponding molar concentration was approximately 10 µM in data set [4] (33 mg/kg) and approximately 20 µM in data set [4] (100 mg/kg). The “increase of gamma-T in the plasma vs corn-oil fed controls” value is 3 fold in data set [4] (33 mg/kg) and 5 fold in data set [4] (100 mg/kg). Moreover, the “ratio of gamma-T to alpha-T in the exudate” value in data set [4] (33 mg/kg gamma-T) was approximately 0.3; in data set [4] (100 mg/kg gamma-T) it was approximately 0.7. The “gamma-T concentration in the collected exudate” value in data set [4] (33 mg/kg) amounted to 93.3 nmol/gprotein; in data set [4] (100 mg/kg) it was 193 nmol/gprotein. Further, in data set [4] (33 or 100 mg/kg gamma-T), the “ratio of gamma-T to alpha-T in the plasma” value is approximately 0.15. In addition, in data set [4] (rat, in vivo), the “effect of gamma-T administration on alpha-T levels” value is “did not significantly affect”. Besides, the “effect on normal epithelial cells” value in the data set with normal epithelial cells was “had no effect”. In addition, in data set [5] (33 mg/kg), the “effect on total nitrate and nitrite” value was “had no effect”. Besides, the “reduction of LTB4” value in data set [5] (setting [7]) is reported as 70%. The “reduction of PGE2” value in data set [5] (setting [7]) came to 46%. For the same compound, the “reduction of 8-isoprostane in the pouch (lipid peroxidation)” value in data set [5] (33 mg/kg, P<0.05) was approximately 57%; in data set [5] (100 mg/kg, P<0.05), approximately 57%. Further, the “attenuation of the loss of food consumption” value is 20% in data set [5] (33 mg/kg, non-significant, P=0.2) and 30% in data set [5] (100 mg/kg, P<0.03). In data set [5] (33 mg/kg, non-significant, P=0.29), the “inhibition of TNF-a” value is approximately 51%. The “inhibitory potency against PGE2” value in data set [5] (100 mg/kg by gavage for three days, 20 h, P<0.05) is given as 51%. Moreover, the “lowering of LDH (cytotoxicity and tissue damage marker)” value in data set [5] (100 mg/kg, P=0.067) is 30%. Further, the “reduction of TNF-a” value in data set [5] (100 mg/kg, P=0.069) is recorded as 65%. For the same compound, the “reduction of total nitrite and nitrate” value in data set [5] (100 mg/kg, P=0.1) is 40%. Also, the neutrophil infiltration result in data set [5] (gavage 33 or 100 mg/kg, 20 h) was “did not affect”. For the same compound, in the data set with PGE2, the IC50 was 5 to 10 µM.
With `Cc1cc(O)cc2c1O[C@](C)(CCC[C@H](C)CCC[C@H](C)CCCC(C)C)CC2` [delta-T, Delta-tocopherol], in the data set on PGE2, the IC50 is 2.5 to 5 µM.
Turning to `Cc1cc(O)c(C)c2c1O[C@](C)(CCC[C@H](C)CCC[C@H](C)CCCC(C)C)CC2` [beta-T, beta-tocopherol, reference compound], in the data set on PGE2, the “inhibitory effect on PGE2” value was “weak to no inhibitory effect”.
As to `CC(C)=CCC/C(C)=C/CC/C(C)=C/CC[C@]1(C)CCc2cc(O)c(C)c(C)c2O1` [gamma-tocotrienol], in the data set with PGE2, the IC50 lay within 1 to 2.5 µM.
Consider `Cc1c(C)c2c(c(C)c1O)CC[C@@](C)(CCC[C@H](C)CCC[C@H](C)CCCC(C)C)O2` [alpha-T, alpha-tocopherol, reference compound], for which, in data set [4] (33 mg/kg alpha-T), the “increased alpha-T level in the plasma and exudate” value is reported as “approximately 2 fold”. Further, in data set [4] (P<0.05), the “decrease of gamma-T in the exudate caused by alpha-T administration” value was determined as 40% and the “decrease of gamma-T in the plasma caused by alpha-T administration” value was approximately 55%. In addition, the “effects on generation of eicosanoids and 8-isoprostane” value in data set [5] (33 mg/kg) is “did not show any significant effects”. In addition, the “inhibitory effect on PGE2” value in the data set on PGE2 was “weak to no inhibitory effect”.
As for `CC(=O)Oc1ccccc1C(=O)O` [aspirin, Acetylsalicylic acid], in data set [6] (doses of 100-150 mg/kg), the neutrophil infiltration entry is “did not affect” and the “reduction of PGE2” value was 50-70%. Further, the cell infiltration entry in data set [6] (higher doses, >200-300 mg/kg) is reported as “inhibits cell infiltration”.
On to `Cc1c(O)cc2c(c1C)OC(C)(CCC(=O)O)CC2` (centres unmarked) [gamma-CEHC, 2,7,8-trimethyl-2-(b-carboxyethyl)-6-hydroxychroman], for which, in data set [4] (rat, in vivo), the “plasma concentration of gamma-CEHC” value was “Nano-molar concentrations” and the “plasma gamma-CEHC level relative to plasma gamma-T” value is “less than 10%”. In data set [5] (setting [8]), the “inhibition of LTB4” value is “inhibited LTB4 and neutrophil infiltration, though non-significantly”; the “inhibition of neutrophil infiltration” value is “inhibited LTB4 and neutrophil infiltration, though non-significantly”. Also, the “reduction of PGE2 in the pouch” value in data set [5] (1 mg/ml, 2 ml in PBS injected into the air pouch, 6 h after induction, P<0.05) is recorded as approximately 29%.
